The test system of assay [1] is Rat Skin Tumor Cell (B16F10 cell strain). Nature of the assay: MTT cell viability assay. The format is cell-based. The following applies: Mus musculus, B16-F10.
Assay [2] deals with ROS content in breast tumor cells MDA-MB-453. Nature of the assay: reactive oxygen species method. The format is cell-based, human. The following applies: 40 μM. As for the experimental part:
In FIG. 12, the reactive oxygen species method was used to detect the effect of increased treatment doses of the compound II on the ROS content in breast tumor cells, and a photograph was taken at a 200× field under the fluorescence microscope. In the intracellular reactive oxygen species method, the cells were planted in a 24-well plate (5×10^4 cells/well). The next day after the cells were adhered to the wall, the cells were cultured in a serum free DMEM culture medium at an atmosphere of 5% CO2 in an incubator at 37° C. for 12 h. The compound II was added into the 1% FBS-DMEM culture medium, and the cells were cultured in the culture medium for 2 h. The cells were then washed with PBS. 100 ng/mL LPS was added to react with the cells, and then the cells were washed with PBS. […] The absorbance was measured by a fluorescence spectrometer, where the excitation wavelength was set as 485±20 nm, and the […] was set as 530±25 nm. […] Thus in the following the cells were treated with 40 μM the compound II and then the ROS content of cells was detected. […] FIG. 23 is a quantitative diagram showing the effect of increasing treatment time on the ROS content of breast tumor cells when the reactive oxygen species method was performed to detect the breast tumor cells treated with 40 μM the compound II. […]

Assay [3] concerns human normal breast cells MCF-10A. The experiment in a line: MTT cell viability assay. The format is cell-based. As to the method: (§1) The breast tumor cells (MDA-MB-231, MDA-MB-435, MDA-MB-453, MDA-MB-468 and MCF-7) were commercially obtained from the bioresource collection and research center (BCRC), and were cultured in a 10% FBS-DMEM culture medium (i.e., a DMEM culture medium including 10% fetal bovine serum (FBS)). The human breast cell MCF-10A was cultured in a 5% FBS-DMEM culture medium (including F12, insulin, hydrocortisol and epidermal growth factor). An environment of 5% CO2 was kept in the incubator at a constant temperature of 37° C. When a certain number of cells were generated in culture, the culture medium was removed after being centrifuged for 10 min at a rate of 900 rpm. The culture medium was replaced in 24 h before the experiment, and the number of cells was counted by a hemocytometer.
(§2) The cell viability was determined by a method of […] (MTT assay). The test method for assaying cell viability refers to steps provided by Parada-Turska et al.
(§3) The breast tumor cells MDA-MB-231 were inoculated in a 24-well plate (2.5×10^5 cells/well), and the next day after cells were adhered to the wall of the plate, the cells were washed with PBS. 1% FBS-DMEM culture medium was then added so as to synchronize cells. The next day compound II having different concentrations were added into the wells, and the cells were subsequently cultured in an atmosphere of 5% CO2 at 37° C. for 24 h. The cells were washed with PBS once, and 400 μl MTT agent was added in each well so as to react for 4 h. Then 400 μl 10% SDS was added in each well so as to react for 12 h. 200 μl supernatant was taken from the well and then added into a 96-well microplate, so as to measure the absorbance at 570 nm.

Another assay deals with breast tumor cells MCF-7. The experiment in a line: MTT cell viability assay. It is filed as cell-based. The following applies: Homo sapiens, MCF7. As for the experimental part:
as §1, §2, §3

The test system of assay [4] is ROS content in breast tumor cells MDA-MB-231. Nature of the assay: intracellular reactive oxygen species method. The format is cell-based, human. As for the experimental part:
In FIG. 12, the reactive oxygen species method was used to detect the effect of increased treatment doses of the compound II on the ROS content in breast tumor cells, and a photograph was taken at a 200× field under the fluorescence microscope. In the intracellular reactive oxygen species method, the cells were planted in a 24-well plate (5×10^4 cells/well). The next day after the cells were adhered to the wall, the cells were cultured in a serum free DMEM culture medium at an atmosphere of 5% CO2 in an incubator at 37° C. for 12 h. The compound II was added into the 1% FBS-DMEM culture medium, and the cells were cultured in the culture medium for 2 h. The cells were then washed with PBS. 100 ng/mL LPS was added to react with the cells, and then the cells were washed with PBS. Culture medium including 10 μM fluorescent probe (DCFH2-DA) was supplied and then the cells were cultured for 30 min at 37° C. The cells were washed with PBS for three times so as to remove the residual stain. Finally the cells were lysed using 0.25% Tritox-100. The absorbance was measured by a fluorescence spectrometer, where the excitation wavelength was set as 485±20 nm, and the […] was set as 530±25 nm.

For assay [5], the system named is human normal breast cells MCF-10A stimulated by TNF-α/TGF-β. Nature of the assay: transwell invasion assay. The format is cell-based. The following applies: 2 μM with TNF-α/TGF-β 10 ng/ml simultaneously.

The structures appear in SMILES notation. Where two headings read alike, the source gives them in different places.

`COC1=C(OC)C(=O)C(C)=C(C)C1=O` [compound II]: the IC50 is 20.6 µM in assay [1]; about 25 µM in assay [3] (MCF-10A, 0-40 μM for 24 h, FIG. 1A, read-out: IC50 for inhibiting the normal breast cells MCF-10A); 24.1 µM in assay [3] (viability, MCF-10A cell strain, Table 1, read-out: IC50); about 30 µM with breast tumor cells MCF-7 (0-40 μM for 24 h, FIG. 1A, read-out: IC50 for inhibiting the MCF-7); 27.7 µM in the assay with breast tumor cells MCF-7 (viability, MCF-7 cell strain, Table 1, read-out: IC50). In addition, the “content of oxygen species compared with the control group” value in assay [2] is “higher”. The “increasing trend of reactive oxygen species” value in assay [4] (MDA-MB-231, with antioxidant NAC added at the same time) is “not obvious”. In assay [4] (MDA-MB-231, with increasing treatment doses), the “content of reactive oxygen species” value was “increased accordingly”.

`COC1=C(OC)C(=O)C(C)=CC1=O` [compound I]: in assay [5], the “invasion of MCF-10A” value is listed as “significantly decreased”.

Source of the values: patent publication US20150087722A1, “TREATMENT FOR BREAST TUMOR CELL METASTASIS” (China Medical University, priority 2012, published 2015).
